Measurements from patent US4130645A (priority 1978, dated 1978).

Tests used:
[1] = test system: Pyricularia oryzae Carvara; settings: in vivo
rice = settings: 1000 ppm
wheat = experiment: Plant injury to wheat in leaf rust test; assay type: in vivo, Triticum vulgare, cv. Cheyenne
Method: (§1) Individual pots of approximately 20 to 25 wheat (Triticum vulgare, cv. Cheyenne) plants each, grown under greenhouse conditions, approximately 7 to 8 days old and 10.2 to 12.7 cm. tall are used as test plants, a minimum of three such pots per unit of test.
(§2) The required amount of test compound is dissolved in 10 ml. of a stock solution consisting of 1995 ml. acetone, 4 ml. sorbitan trioleate and 1 ml. polyoxyethylene (20) sorbitan monooleate and diluted to a volume of 100 ml. by addition of 90 ml. deionized water.
(§3) Test plants, three pots per unit of test, are mounted on a compound turntable and sprayed to incipient run-off with the test solution applied at 2.81 kg/cm^2 pressure for 60 seconds using a solid conte T-Jet 8801E spray nozzle. By this spray procedure the delivery rate is equivalent to approximately 467.7 l/ha.
(§4) Treated plants are allowed to air dry for 5 to 6 hours and then inoculated by uniformly dusting with urediospores of leaf rust of wheat (Puccinia recondita var. tritici) at a rate of approximately 2 × 10^5 urediospores per replicate, using urediospores directly from diseased plants. Inoculated plants are immediately placed in an incubation chamber maintained at 21° C. and 95% + RH. After 24 hours plants are removed to the greenhouse and maintained under greenhouse conditions of 21° to 29.4° C. and 50 to 75% RH for 5 to 8 days until signs of orange pustules visible to the naked eye appear on the inoculated but otherwise untreated controls.

[2] = test system: Puccinia recondita var. tritici; experiment: Protectant control of leaf rust of wheat; assay type: in vivo
Method: as §1, §2, §3, §4
Effectiveness of the compound, as applied, is expressed as Percent Control calculated as: [formula]
Average number of pustules on plants of any given test unit is determined by randomly dividing all plants in each of the three replicates (one pot per replicate) into quadrants, counting the actual number of pustules on all plants within a quadrant in each of the three replicates, multiplying by four and averaging the total number of pustules thus obtained as the average number of pustules per replicate.

[3] = Thermal decomposition point (Differential Thermal Analyzer); assay type: physicochemical; settings: 20° C./min, onset method; listed as Parent Compound
Method: By the procedure of Examples 2 and 5 the following novel salts of 2,3,5,6-tetrachloro-N-nitroaniline are prepared as listed in Table II below. The melting points (uncorrected) of said salts are determined on a Thomas Hoover Capillary Melting Point Apparatus; while the thermal decomposition points of said salts are determined on a Dupont 900 Differential Thermal Analyzer. […] Decompositions are recorded by an exothermic response and the temperatures given in Table II below are assessed by the "onset method".

[4] = test system: Podosphaera leucotricha (E&E) Salm.; experiment: whole plant or invertebrate; assay type: in vivo; settings: in vivo
[5] = test system: Venturia inaequalis (Cke.) Wint.; experiment: whole plant or invertebrate; assay type: in vivo; settings: in vivo
crops = settings: in vivo; cited from earlier work
groundsel and chickweed = settings: in vivo; cited from earlier work

Structure (SMILES): O=[N+]([O-])Nc1c(Cl)c(Cl)cc(Cl)c1Cl [drawing 59]
- Rice Blast Percent Disease Control [1]: 83%
- phytotoxicity (rice): M/Sv

Structure (SMILES): CC(=O)N(c1c(Cl)c(Cl)cc(Cl)c1Cl)[N+](=O)[O-] [drawing 57]
- Rice Blast Percent Disease Control [1]: 100%

Structure (SMILES): O=[N+]([O-])Nc1c(Cl)c(Cl)cc(Cl)c1Cl [drawing 60]
- Rice Blast Percent Disease Control [1]: 83%

Structure (SMILES): Cc1cccc(N[N+](=O)[O-])c1C [drawing 55]
- Rice Blast Percent Disease Control [1]: 81%

Structure (SMILES): O=[N+]([O-])Nc1c(Cl)c(Cl)cc(Cl)c1Cl [drawing 61]
- Rice Blast Percent Disease Control [1]: 83%

Structure (SMILES): O=[N+]([O-])Nc1c(Cl)c(Cl)cc(Cl)c1Cl [2,3,5,6-Tetrachloro-N-nitroaniline, 2,3,5,6-tetrachloro-N-nitroaniline]
- Plant Injury (Ave) (wheat; 50 ppm): 0
- Plant Injury (Ave) (wheat; 100 ppm): 0
- Plant Injury (Ave) (wheat; 200 ppm): 0
- % Control (Ave) ([2]; 50 ppm): 35%
- No. of Infection Loci/Replicate ([2]; 50 ppm, Rep. 1): 186
- No. of Infection Loci/Replicate ([2]; 50 ppm, Rep. 2): 173
- No. of Infection Loci/Replicate ([2]; 50 ppm, Rep. 3): 199
- % Control (Ave) ([2]; 100 ppm): 58%
- No. of Infection Loci/Replicate ([2]; 100 ppm, Rep. 1): 124
- No. of Infection Loci/Replicate ([2]; 100 ppm, Rep. 2): 119
- No. of Infection Loci/Replicate ([2]; 100 ppm, Rep. 3): 116
- % Control (Ave) ([2]; 200 ppm): 69%
- No. of Infection Loci/Replicate ([2]; 200 ppm, Rep. 1): 81
- No. of Infection Loci/Replicate ([2]; 200 ppm, Rep. 2): 96
- No. of Infection Loci/Replicate ([2]; 200 ppm, Rep. 3): 86
- Thermal Decomposition Point [3]: 150 °C

Structure (SMILES): O=[N+]([O-])Nc1c(Br)cc(C(F)(F)F)cc1Br [2,6-dibromo-4-trifluoromethylphenylnitramine]
- activity against apple powdery mildew [4]: active
- activity against apple scab [5]: active

Structure (SMILES): CC(=O)N(c1c(Cl)c(Cl)cc(Cl)c1Cl)[N+](=O)[O-] [N-acetyl derivative of 2,3,5,6-tetrachlorophenylnitramine]
- activity against the rice blast pathogen [1]: considerable activity
- activity against apple powdery mildew [4]: active

Structure (SMILES): Cc1cccc(N[N+](=O)[O-])c1C [2,3-dimethylphenylnitramine]
- activity against the rice blast pathogen [1]: considerable activity

Structure (SMILES): O=[N+]([O-])Nc1ccc(C(F)(F)F)cc1 [4-trifluoromethylphenylnitramine]
- activity against the rice blast pathogen [1]: considerable activity

Structure (SMILES): O=C(O)C1(O)c2ccccc2-c2ccc(Cl)cc21 (stereo not shown) [2-chloro-9-fluorenol-9-carboxylic acid]
- selectivity (crops): very little selectivity
- susceptibility of most crops examined (crops): susceptible
- weed control (groundsel and chickweed): weed control is achieved

Structure (SMILES): O=[N+]([O-])Nc1c(Cl)c(Cl)cc(Cl)c1Cl [drawing 62]
- Rice Blast Percent Disease Control [1]: 69%

Structure (SMILES): O=[N+]([O-])Nc1c(Cl)c(Cl)cc(Cl)c1Cl [drawing 58]
- Rice Blast Percent Disease Control [1]: 83%
- phytotoxicity (rice): M/Sv
